Where a name gives a salt, the structure may show the parent alone. Marks after values point to notes of the source that are not given here.
How the values were obtained:
Type in all cases: physicochemical
[1] = Stress testing: 1 month, 60° C. open container, relative humidity <30% (physico-chemical stability comparison); settings: for Assay (HPLC), 1 month / Related substances (HPLC), 1 month / TG (moisture content), 1 month / XRPD (identity of the material), 1 month: after 1 month, 60° C. open, R.H. <30%; for Assay (HPLC), 1 month / Related substances (HPLC), 1 month / TG (moisture content), 1 month / XRPD (identity of the material), 1 month / Related substances (HPLC), Initial / Assay (HPLC), Initial / TG (moisture content), Initial / XRPD (identity of the material), Initial / Proneness to degradation on storage (in words): maleate; for Related substances (HPLC), Initial / Assay (HPLC), Initial / TG (moisture content), Initial / XRPD (identity of the material), Initial: before storage; for Related substances (HPLC), Initial: Qalpha value from release analysis, Amorphous value from recontrol analysis; for Assay (HPLC), Initial / TG (moisture content), Initial / XRPD (identity of the material), Initial: release / recontrol analysis; for Proneness to degradation on storage (in words): summary of both stress tests (Tables 5 and 6), 1 month, 60° C.
Procedure: (§1) Samples of crystal form Qalpha and amorphous (R)-5-[2-(5,6-diethyl-indan-2-ylamino)-1-hydroxyethyl]-8-hydroxy-1H-quinolin-2-one maleate are stress tested before and after storage for 1 month to provide for physico-chemical stability comparison.
(§2) In a first test the samples are stored at 60° C. in an open container with a relative humidity <30%. In a second test the samples are stored at 60° C. in an open container with a relative humidity of about 75%. The results are shown in Tables 5 and 6 below respectively.
(§3) The tests determine (a) purity and (b) assay as determined by high performance liquid chromatography (HPLC) using HP1100 from Agillent with a YMC-packs ODS-AQ 3 μm column; (c) identity of the material as determined by the X-ray diffraction pattern measured using a SCINTAG™ X-ray diffractometer with a CuK alpha radiation source (45 kV, 40 mA); and (d) moisture content determined using a TGA851e Mettler Toledo STAR System thermogravimetry analysis balance with nitrogen flow 50 ml/min.

[2] = Stress testing: 1 month, 60° C./75% RH open container (physico-chemical stability comparison); settings: for XRPD (identity of the material), 1 month / Assay (HPLC), 1 month / Related substances (HPLC), 1 month / TG (moisture content), 1 month: after 1 month, 60° C./75% RH open; for Assay (HPLC), 1 month / Related substances (HPLC), 1 month / TG (moisture content), 1 month / Assay (HPLC), Initial / Related substances (HPLC), Initial / TG (moisture content), Initial / XRPD (identity of the material), Initial: maleate; for Assay (HPLC), Initial / Related substances (HPLC), Initial / TG (moisture content), Initial / XRPD (identity of the material), Initial: before storage, release / recontrol analysis
Procedure: as §1, §2, §3

[3] = Solubility behaviour / kinetic of dissolution in comparison to the amorphous part

| SMILES | Assay (HPLC), 1 month [1] [%] | Related substances (HPLC), 1 month [1] [%] | TG (moisture content), 1 month [1] [%] | XRPD (identity of the material), 1 month [1] | Related substances (HPLC), Initial [1] | Assay (HPLC), Initial [1] | TG (moisture content), Initial [1] | XRPD (identity of the material), Initial [1] | XRPD (identity of the material), 1 month [2] | Assay (HPLC), 1 month [2] [%] | Related substances (HPLC), 1 month [2] [%] | TG (moisture content), 1 month [2] [%] | Assay (HPLC), Initial [2] | Related substances (HPLC), Initial [2] | TG (moisture content), Initial [2] | XRPD (identity of the material), Initial [2] | other results |
| --- | --- | --- | --- | --- | --- | --- | --- | --- | --- | --- | --- | --- | --- | --- | --- | --- | --- |
| CCc1cc2c(cc1CC)CC(NC[C@H](O)c1ccc(O)c3[nH]c(=O)ccc13)C2 [Amorphous, (R)-5-[2-(5,6-diethyl-indan-2-ylamino)-1-hydroxyethyl]-8-hydroxy-1H-quinolin-2-one maleate, reference compound] | 91.5 | 4.3 | 0.74 | Amorphous | 0.22%# | 99.7%# | 1.8%# | Amorphous# | Qalpha | 98.9 | 0.73 | 0.23 | 99.7%# | 0.22%# | 1.8%# | Amorphous# | Proneness to degradation on storage (in words) ([1]; listed as amorphous material): more prone to degradation than Qalpha; Conversion of solid form on storage (in words) ([2]; stored at 60° C./75% R.H.): converts to crystal form Qalpha |
| CCc1cc2c(cc1CC)CC(NC[C@H](O)c1ccc(O)c3[nH]c(=O)ccc13)C2 [Qalpha, (R)-5-[2-(5,6-diethyl-indan-2-ylamino)-1-hydroxyethyl]-8-hydroxy-1H-quinolin-2-one maleate] | 98.8 | 0.25 | <0.05 | Qalpha | 0.23%* | 100.2%* | 0.07%* | Qalpha* | Qalpha | 99.5 | 0.26 | <0.05 | 100.2%* | 0.23%* | 0.07%* | Qalpha* | Changes after storage (in words) ([1]; storage for 1 month, both stress tests): No significant changes; Proneness to degradation on storage (in words) ([1]; listed as crystal form Qalpha): less prone to degradation or conversion than the amorphous form on storage; Solubility behaviour: kinetic of dissolution (in words) [3]: lower kinetic of dissolution |

Reference: patent publication US20100010039A1, “POLYMORPHIC CRYSTAL FORM OF A INDAN-2-YLAMINO-HYDROXYETHYL-QUINOLINONE MALEATE DERIVATIVE AS BETA-ADRENOCEPTOR AGONIST” (priority 2006, published 2010)
